According to patent US20240109917A1 (ACTELION PHARMACEUTICALS LTD, priority 2020, published 2024):
Read-outs that look alike come from different tables or passages of the source.

Target: PDGFRβ (Rattus norvegicus (Rat), UniProt Q05030)
Test: PDGFRβ Cellular Assay (PDGFRb P-Y751 HTRF in A10 cells stimulated with PDGF-BB)
Format: cell-based
Procedure, shortened: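 Rat A10 cells, plated overnight, were treated with compound for 3 hours, then stimulated with PDGF-BB (working stock 100 ng/mL in 10% FBS medium). After lysis, PDGFRβ P-Y751 was detected by HTRF.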

PDGFRβ, sequence (Q05030 32-1097): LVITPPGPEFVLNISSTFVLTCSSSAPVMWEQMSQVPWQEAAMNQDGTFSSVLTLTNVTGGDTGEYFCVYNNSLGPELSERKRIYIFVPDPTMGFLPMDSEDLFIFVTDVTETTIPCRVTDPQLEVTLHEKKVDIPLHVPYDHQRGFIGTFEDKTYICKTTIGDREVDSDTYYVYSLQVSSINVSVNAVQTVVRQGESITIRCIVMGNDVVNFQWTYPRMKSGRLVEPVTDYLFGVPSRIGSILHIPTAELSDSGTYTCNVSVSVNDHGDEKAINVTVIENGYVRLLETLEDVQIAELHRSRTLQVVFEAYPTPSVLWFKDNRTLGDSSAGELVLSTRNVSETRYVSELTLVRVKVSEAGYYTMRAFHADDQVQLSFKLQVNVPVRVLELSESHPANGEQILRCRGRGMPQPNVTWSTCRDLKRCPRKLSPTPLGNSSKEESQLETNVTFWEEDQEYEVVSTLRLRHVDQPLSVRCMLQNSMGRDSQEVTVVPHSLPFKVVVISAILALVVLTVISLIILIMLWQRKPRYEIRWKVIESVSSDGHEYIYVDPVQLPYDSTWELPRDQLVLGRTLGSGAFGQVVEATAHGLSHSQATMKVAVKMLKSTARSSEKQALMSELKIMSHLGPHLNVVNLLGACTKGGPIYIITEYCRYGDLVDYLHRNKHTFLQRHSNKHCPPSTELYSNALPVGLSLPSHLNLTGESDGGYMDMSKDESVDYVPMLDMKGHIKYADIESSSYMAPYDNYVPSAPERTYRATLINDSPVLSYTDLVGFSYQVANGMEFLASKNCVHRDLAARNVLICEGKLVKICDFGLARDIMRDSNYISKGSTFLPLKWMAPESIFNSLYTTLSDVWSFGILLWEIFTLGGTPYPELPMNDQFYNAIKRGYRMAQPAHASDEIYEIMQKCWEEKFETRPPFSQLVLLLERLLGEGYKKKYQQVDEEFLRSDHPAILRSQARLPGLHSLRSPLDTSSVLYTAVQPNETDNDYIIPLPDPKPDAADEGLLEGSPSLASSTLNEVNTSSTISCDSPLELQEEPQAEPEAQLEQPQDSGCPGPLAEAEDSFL

Row | SMILES | IC50 (read-out: PDGFR Cellular IC50) | IC50 (PDGFR Cellular IC50)
1 | Cc1ncc(NC(=O)CN2CC(C)(C)C2)cc1NC(=O)c1cnn2cc(-c3cnc4n3CCOC4)sc12 [Example 415, 2-(5,6-dihydro-8H-imidazo[2,1-c][1,4]oxazin-3-yl)-N-(5-(2-(3,3-dimethylazetidin-1-yl)acetamido)-2-methylpyridin-3-yl)pyrazolo[5,1-b]thiazole-7-carboxamide] | 41.5 nM | 
2 | Cc1ncc(NC(=O)CC2CN(C)C2)cc1NC(=O)c1cnn2cc(-c3cnn4c3CCC4)sc12 [Example 427, 2-(5,6-dihydro-4H-pyrrolo[1,2-b]pyrazol-3-yl)-N-(2-methyl-5-(2-(1-methylazetidin-3-yl)acetamido)pyridin-3-yl)pyrazolo[5,1-b]thiazole-7-carboxamide] | > 2000 nM | 
3 | Cc1ncc(NC(=O)CNC2CCCC2)cc1NC(=O)c1cnn2cc(-c3cnn4c3CCC4)sc12 [Example 422, N-(5-(2-(cyclopentylamino)acetamido)-2-methylpyridin-3-yl)-2-(5,6-dihydro-4H-pyrrolo[1,2-b]pyrazol-3-yl)pyrazolo[5,1-b]thiazole-7-carboxamide] | 2.6 nM | 
4 | Cc1ncc(NC(=O)CN2CC(C)(C)C2)cc1NC(=O)c1cnn2cc(-c3cncnc3)sc12 [Example 429, N-(5-(2-(3,3-dimethylazetidin-1-yl)acetamido)-2-methylpyridin-3-yl)-2-(pyrimidin-5-yl)pyrazolo[5,1-b]thiazole-7-carboxamide] | 30.9 nM | 
5 | Cc1ncc(NC(=O)CN2CCC2)cc1NC(=O)c1cnn2cc(-c3cnn4c3OCCC4)sc12 [Example 412, N-(5-(2-(azetidin-1-yl)acetamido)-2-methylpyridin-3-yl)-2-(6,7-dihydro-5H-pyrazolo[5,1-b][1,3]oxazin-3-yl)pyrazolo[5,1-b]thiazole-7-carboxamide] | 77.2 nM | 
6 | Cc1ncc(NC(=O)CN2CCC[C@@H]2C)cc1NC(=O)c1cnn2cc(-c3cnn4c3COCC4)sc12 [Example 473, (S)-2-(6,7-dihydro-4H-pyrazolo[5,1-c][1,4]oxazin-3-yl)-N-(2-methyl-5-(2-(2-methylpyrrolidin-1-yl)acetamido)pyridin-3-yl)pyrazolo[5,1-b]thiazole-7-carboxamide] | 5.3 nM | 
7 | Cc1ncc(NC(=O)CN2CC(C)(C)C2)cc1NC(=O)c1cnn2cc(-c3cccnc3OC(F)(F)F)sc12 [Example 437, N-(5-(2-(3,3-dimethylazetidin-1-yl)acetamido)-2-methylpyridin-3-yl)-2-(2-(trifluoromethoxy)pyridin-3-yl)pyrazolo[5,1-b]thiazole-7-carboxamide] | 6 nM | 
8 | CCOc1ncccc1-c1cn2ncc(C(=O)Nc3cc(NC(=O)CN4CC(C)(C)C4)cnc3C)c2s1 [Example 436, N-(5-(2-(3,3-Dimethylazetidin-1-yl)acetamido)-2-methylpyridin-3-yl)-2-(2-ethoxypyridin-3-yl)pyrazolo[5,1-b]thiazole-7-carboxamide] | 1.6 nM | 
9 | COC1(C)CN(CC(=O)Nc2cnc(C)c(NC(=O)c3cnn4cc(-c5cn(C)nc5C)sc34)c2)C1 [Example 442, 2-(1,3-Dimethyl-1H-pyrazol-4-yl)-N-(5-(2-(3-methoxy-3-methylazetidin-1-yl)acetamido)-2-methylpyridin-3-yl)pyrazolo[5,1-b]thiazole-7-carboxamide] | 8.1 nM | 
10 | Cc1ncc(NC(=O)CN2CCC3(CC3)C2)cc1NC(=O)c1cnn2cc(-c3cnn4c3COCC4)sc12 [Example 474, N-(5-(2-(5-azaspiro[2.4]heptan-5-yl)acetamido)-2-methylpyridin-3-yl)-2-(6,7-dihydro-4H-pyrazolo[5,1-c][1,4]oxazin-3-yl)pyrazolo[5,1-b]thiazole-7-carboxamide] | 3.9 nM | 
11 | COCCn1cc(-c2cn3ncc(C(=O)Nc4cc(NC(=O)C[C@@H]5CCN(C(C)C)C5)cnc4C)c3s2)cn1 [Example 466, (S)—N-(5-(2-(1-isopropylpyrrolidin-3-yl)acetamido)-2-methylpyridin-3-yl)-2-(1-(2-methoxyethyl)-1H-pyrazol-4-yl)pyrazolo[5,1-b]thiazole-7-carboxamide] | 350 nM | 
12 | Cc1ncc(NC(=O)CNCC2CC2)cc1NC(=O)c1cnn2cc(-c3cnn4c3OCCC4)sc12 [Example 453, N-(5-(2-((cyclopropylmethyl)amino)acetamido)-2-methylpyridin-3-yl)-2-(6,7-dihydro-5H-pyrazolo[5,1-b][1,3]oxazin-3-yl)pyrazolo[5,1-b]thiazole-7-carboxamide] | 25.1 nM | 
13 | Cc1ncc(NC(=O)CN2CCC(C)C2)cc1NC(=O)c1cnn2cc(-c3cn(C)nc3C)sc12 (stereo not drawn) [Example 446, 2-(1,3-Dimethyl-1H-pyrazol-4-yl)-N-(2-methyl-5-(2-(3-methylpyrrolidin-1-yl)acetamido)pyridin-3-yl)pyrazolo[5,1-b]thiazole-7-carboxamide] | 3 nM | 
14 | Cc1ncc(NC(=O)CN2CC(C)(C)C2)cc1NC(=O)c1cnn2cc(-c3cnn4c3OCCC4)sc12 [Example 39, 2-(6,7-dihydro-5H-pyrazolo[5,1-b][1,3]oxazin-3-yl)-N-(5-(2-(3,3-dimethylazetidin-1-yl)acetamido)-2-methylpyridin-3-yl)pyrazolo[5,1-b]thiazole-7-carboxamide] | 2 nM | 
15 | Cc1ncc(NC(=O)CN2CC(C)(C)C2)cc1NC(=O)c1cnn2cc(-c3nn(C)nc3C)sc12 [Example 445, 2-(2,5-Dimethyl-2H-1,2,3-triazol-4-yl)-N-(5-(2-(3,3-dimethylazetidin-1-yl)acetamido)-2-methylpyridin-3-yl)pyrazolo[5,1-b]thiazole-7-carboxamide] | 2.2 nM | 
16 | Cc1ncc(NC(=O)CN2CCCC2(C)C)cc1NC(=O)c1cnn2cc(-c3cn(C)nc3C)sc12 [Example 444, 2-(1,3-Dimethyl-1H-pyrazol-4-yl)-N-(5-(2-(2,2-dimethylpyrrolidin-1-yl)acetamido)-2-methylpyridin-3-yl)pyrazolo[5,1-b]thiazole-7-carboxamide] | 1.3 nM | 
17 | COCCn1cc(-c2cn3ncc(C(=O)Nc4cc(NC(=O)CCC5CCCN5C)cnc4C)c3s2)cn1 (stereo not drawn) [Example 462, 2-(1-(2-methoxyethyl)-1H-pyrazol-4-yl)-N-(2-methyl-5-(3-(1-methylpyrrolidin-2-yl)propanamido)pyridin-3-yl)pyrazolo[5,1-b]thiazole-7-carboxamide] | 298 nM | 
18 | Cc1ncc(C(=O)NCCN2CCCC23CCC3)cc1NC(=O)c1cnn2cc(-c3cnn4c3CCC4)sc12 [Example 461, N-(5-((2-(5-azaspiro[3.4]octan-5-yl)ethyl)carbamoyl)-2-methylpyridin-3-yl)-2-(5,6-dihydro-4H-pyrrolo[1,2-b]pyrazol-3-yl)pyrazolo[5,1-b]thiazole-7-carboxamide] | 2.1 nM | 
19 | Cc1ncc(NC(=O)CNC2CCCC2)cc1NC(=O)c1cnn2cc(-c3cnn4c3OCCC4)sc12 [Example 421, N-(5-(2-(cyclopentylamino)acetamido)-2-methylpyridin-3-yl)-2-(6,7-dihydro-5H-pyrazolo[5,1-b][1,3]oxazin-3-yl)pyrazolo[5,1-b]thiazole-7-carboxamide] | 6.2 nM | 
20 | Cc1ncc(C(=O)NCCN2CCCC2(C)C)cc1NC(=O)c1cnn2cc(-c3cnn4c3COCC4)sc12 [Example 450, 2-(6,7-dihydro-4H-pyrazolo[5,1-c][1,4]oxazin-3-yl)-N-(5-((2-(2,2-dimethylpyrrolidin-1-yl)ethyl)carbamoyl)-2-methylpyridin-3-yl)pyrazolo[5,1-b]thiazole-7-carboxamide] | 21.6 nM | 
21 | Cc1ncc(NC(=O)CC2CN(C)C2)cc1NC(=O)c1cnn2cc(-c3cnn4c3CCC4)sc12 [Example 468, 2-(5,6-dihydro-4H-pyrrolo[1,2-b]pyrazol-3-yl)-N-(2-methyl-5-(2-(1-methylazetidin-3-yl)acetamido)pyridin-3-yl)pyrazolo[5,1-b]thiazole-7-carboxamide] | 2000 nM | 
22 | Cc1ncc(NC(=O)CN2CC(C)(C)C2)cc1NC(=O)c1cnn2cc(-c3cn(C)nc3C)sc12 [Example 430, 2-(1,3-Dimethyl-1H-pyrazol-4-yl)-N-(5-(2-(3,3-dimethylazetidin-1-yl)acetamido)-2-methylpyridin-3-yl)pyrazolo[5,1-b]thiazole-7-carboxamide] | 1 nM | 
23 | Cc1ncc(C(=O)NCC2CCCN2C)cc1NC(=O)c1cnn2cc(-c3cnn4c3OCCC4)sc12 (stereo not drawn) [Example 470, 2-(6,7-dihydro-5H-pyrazolo[5,1-b][1,3]oxazin-3-yl)-N-(2-methyl-5-(((1-methylpyrrolidin-2-yl)methyl)carbamoyl)pyridin-3-yl)pyrazolo[5,1-b]thiazole-7-carboxamide] | 109 nM | 
24 | Cc1ncc(NC(=O)CN2CCCC2(C)C)cc1NC(=O)c1cnn2cc(-c3cnn(CCO)c3)sc12 [Example 447, N-(5-(2-(2,2-dimethylpyrrolidin-1-yl)acetamido)-2-methylpyridin-3-yl)-2-(1-(2-hydroxyethyl)-1H-pyrazol-4-yl)pyrazolo[5,1-b]thiazole-7-carboxamide] | 12.4 nM | 
25 | Cc1ncc(NC(=O)CN2C[C@@H](C)O[C@H](C)C2)cc1NC(=O)c1cnn2cc(-c3cnn(CCS(C)(=O)=O)c3)sc12 (relative stereo) [Example 432, N-(5-(2-(trans-2,6-dimethylmorpholino)acetamido)-2-methylpyridin-3-yl)-2-(1-(2-(methylsulfonyl)ethyl)-1H-pyrazol-4-yl)pyrazolo[5,1-b]thiazole-7-carboxamide] |  | 420 nM
26 | Cc1ncc(C(=O)NCCN2CCCC23CCC3)cc1NC(=O)c1cnn2cc(-c3cnn4c3COCC4)sc12 [Example 472, N-(5-((2-(5-azaspiro[3.4]octan-5-yl)ethyl)carbamoyl)-2-methylpyridin-3-yl)-2-(6,7-dihydro-4H-pyrazolo[5,1-c][1,4]oxazin-3-yl)pyrazolo[5,1-b]thiazole-7-carboxamide] | 5.4 nM | 
27 | Cc1ncc(C(=O)NCC2CCCN2C)cc1NC(=O)c1cnn2cc(-c3cnn4c3CCC4)sc12 (stereo not drawn) [Example 469, 2-(5,6-dihydro-4H-pyrrolo[1,2-b]pyrazol-3-yl)-N-(2-methyl-5-(((1-methylpyrrolidin-2-yl)methyl)carbamoyl)pyridin-3-yl)pyrazolo[5,1-b]thiazole-7-carboxamide] | 40.5 nM | 
